These results are taken from paper PMC3284447, “In vivo antinociception of potent mu opioid agonist tetrapeptide analogues and comparison with a compact opioid agonist - neurokinin 1 receptor antagonist chimera” (Molecular Brain, 2012).

For assay [1], the system named is DOR. Description: MVD (mouse vas deferens) tissue bioassay, DOR-representative. The note with it: SBCHM01 compared to AN81, MVD EC50. An excerpt: Aba: 4-amino-1,2,4,5-tetrahydro-2-benzazepin-3-on; BBB: blood-brain barrier; CNS: central nervous system; DML: designed multiple ligand; Dmt: 2',6'-dimethyl-(S)-tyrosine; DOR: δ-opioid receptor; GPI: Guinea pig ileum; KOR: κ-opioid receptor; MOR: μ-opioid receptor; MPE: maximal possible effect; MVD: mouse vas deferens; NK1: neurokinin 1.

Assay [2] deals with DOR. Description: DOR binding, displacement of [^3H]DSLET from rat brain membranes. The note with it: SBCHM01 compared to AN81, Ki.
Assay [3] relates to male C57Bl6 mice. As to the kind of experiment: hot water tail-flick test, acute antinociception after i.v. administration. It is filed as in vivo, mouse. The note with it: i.v. On the procedure: (§1) Nociceptive responses to thermally-induced pain were assessed by the hot water tail-flick test using male C57Bl6 mice. Animals (weighing 25-28 g) were maintained on a normal light-dark cycle and testing occurred during the light cycle. Mice were injected intravenously (i.v.) with the examined drug, dissolved in saline, at different doses. For the verification of drug-induced antinociceptive tolerance, the investigated compounds were administered (i.v.) once per day for 5 days (2 and 4 mg/kg for SBCHM01 and 4 mg/kg for both AN81 and BVD03) and the analgesic effect was measured on the first and the fifth day of the experiment. In each case (both acute and chronic treatment) the effect was measured over a minimum time period of 120 minutes. The antinociceptive effect was measured in triplicate at the following time points post-injection: 5, 15, 30, 60, 120 min (and 180 min for SBCHM01; due to the strong and long-lasting analgesic effect produced by AN81 (Figure 2C), there was no possibility to prolong the experiment, which - if prolonged - could in consequence cause major damage to the animal's tail, thus giving spurious nociceptive responses). Responses to thermal hot stimulus were assessed by the latency with which the mouse removed its tail from 55°C water. A cut-off time of 10 s was used in order to prevent tissue damage.
(§2) In order to compare the antinociceptive effect induced by the examined drugs, morphine was used as a standard reference.
(§3) Data are presented as means ± standard errors of the mean (SEM). All of the calculations and statistical analysis were performed using Prism 5.0 (Graph Pad Software, San Diego, CA, USA). The nociceptive scores were analyzed using a two-way Anova with Bonferroni's post hoc test. The p value (the value of probability) as well as inferential statistics - F test, which include information about the obtained magnitude or value of the test statistic and degrees of freedom, are represented.

Assay [4] has as its system male C57Bl6 mice. As to the kind of experiment: hot water tail-flick test, tolerance after daily i.v. administration for 5 days. It is filed as in vivo, mouse. The note with it: for tolerance development after repetitive administration: daily for 5 days, i.v. (morphine i.p.), measured on day 5. The procedure:
as §1, §2, §3

A further assay concerns NK1R. The note with it: calculated using the Schild's equation; cited from earlier work. An excerpt:
Table 1 In vitro functional activities and affinities of opioid- and opioid-NK1 ligands | column: NK1R pA2^a

Another assay concerns the target hNK1R. The settings on record: [^3H]-SP, hNK1-CHO membranes; means ± SEM of three independent experiments; one site competition fitting; cited from earlier work. An excerpt: Table 1 In vitro functional activities and affinities of opioid- and opioid-NK1 ligands | column: hNK1R Ki (nM)^b
For assay [5], the system named is MOR. Further details: method as in PMID 21413804. The note with it: GPI tissue bioassay; means of 3-6 experiments ± SEM; cited from earlier work.
In assay [6] the test system is DOR. More on the design: method as in PMID 21413804. The note with it: MVD tissue bioassay; means of 3-6 experiments ± SEM; cited from earlier work.
In the next assay the target is KOR. The note with it: cited from earlier work. An excerpt:
Table 1 In vitro functional activities and affinities of opioid- and opioid-NK1 ligands | column: KOR Ki (nM)^e, f

Assay [7] addresses MOR. Further details: method as in PMID 21413804. The settings on record: [^3H]DAMGO, rat brain membrane; cited from earlier work.
Assay [8] addresses DOR. Further details: method as in PMID 21413804. The settings on record: [^3H]DSLET, rat brain membrane; cited from earlier work.
The conditions of assay [9]: cited from earlier work. An excerpt:
The structure differs from BVD03 only in the amide nitrogen N-methyl group and side chain of the second residue in the peptide sequence (Figure 1). When an activity comparison is made between the two ...

For assay [10], the system named is MOR. Description: forskolin-stimulated cAMP accumulation, MOR agonism. The format is cell-based. The note with it: BVD03 in comparison to BVD02, EC50 cAMP.
Assay [11] relates to MOR. Description: MOR binding, displacement of [^3H]diprenorphine in HEK293 cells. The note with it: BVD03 in comparison to BVD02, Ki.
In assay [12] the test system is DOR. Description: DOR binding, displacement of [^3H]diprenorphine in HEK293 cells. The note with it: BVD03 in comparison to BVD02, Ki.
Assay [13] relates to MOR. The settings on record: forskolin-stimulated cAMP accumulation, agonist; cited from earlier work. An excerpt:
Table 1 In vitro functional activities and affinities of opioid- and opioid-NK1 ligands | column: MOR EC50 (nM)^c, d || The potent antinociceptive effects of the investigated structures after peripheral administration indicate that all four peptidic compounds are able to cross the BBB. […] The observed effects are in agreement with earlier in vitro binding data obtained for these peptides (BVD02 ...

Assay [14] deals with DOR. The settings on record: forskolin-stimulated cAMP accumulation, agonist; cited from earlier work. From the text:
Table 1 In vitro functional activities and affinities of opioid- and opioid-NK1 ligands | column: DOR EC50 (nM)^c, d || The potent antinociceptive effects of the investigated structures after peripheral administration indicate that all four peptidic compounds are able to cross the BBB. […] The observed effects are in agreement with earlier in vitro binding data obtained for these peptides (BVD02 ...

Assay [15] has as its target MOR. The note with it: [^3H]diprenorphine, HEK293 cells stably expressing MOR; cited from earlier work. From the text: Table 1 In vitro functional activities and affinities of opioid- and opioid-NK1 ligands | column: MOR Ki (nM)^e, f || The potent antinociceptive effects of the investigated structures after peripheral administration indicate that all four peptidic compounds are able to cross the BBB. […] The observed effects are in agreement with earlier in vitro binding data obtained for these peptides (BVD02 ...

Assay [16] addresses DOR. The note with it: [^3H]diprenorphine, HEK293 cells stably expressing DOR; cited from earlier work. An excerpt: Table 1 In vitro functional activities and affinities of opioid- and opioid-NK1 ligands | column: DOR Ki (nM)^e, f || The potent antinociceptive effects of the investigated structures after peripheral administration indicate that all four peptidic compounds are able to cross the BBB. […] The observed effects are in agreement with earlier in vitro binding data obtained for these peptides (BVD02 ...

Assay [17] concerns male, Sprague-Dawley rats. The settings on record: TY005, rats; i.t. administration, paw withdrawal test; cited from earlier work. From the text: Recently, Vanderah and coworkers reported the detailed in vivo evaluation of H-Tyr-D-Ala-Gly-Phe-Met-Pro-Leu-Trp-O-3',5'-Bn(CF3)2 (TY005) in several animal assays to define the role of this compound in thermal and tactile stimuli in uninjured, sham- and nerve-injured male, Sprague-Dawley rats. They observed that this compound was able to exert the desired dual activity in vivo. […] This is in contrast to the current study, where the hot water tail-flick assay served as a model for acute pain and in which the drug was injected intravenously. […] For a general clinical applicability, an important goal in pain research consists of the discovery and development of improved analgesic drugs which could be admi ...

The subject of another assay is rodents. The settings on record: administered centrally or peripherally in rodents; cited from earlier work. An excerpt:
From our previous results, we selected three opioid tetrapeptides with promising in vitro potency for further in vivo evaluation. […] We recently identified the opioid ligands H-Dmt-NMe-D ...

In assay [18] the test system is MOR. Further details: method as in PMID 8981054, PMID 7712029. The note with it: cited from earlier work.
Setting [19] is: 4 mg/kg, 120 min, ± SEM, vs morphine: BVD03 p < 0.05, SBCHM01 p > 0.05.

Entries after “also recorded” stand apart in the source; their conditions may differ. Read-outs that look alike come from different tables or passages of the source.

“H-Dmt-D-Arg-Aba-Gly-NMe-3',5'-Bn(CF3)2 [SBCHM01]”: the “fold decrease in DOR potency vs AN81” value with DOR [1] is recorded as 103 fold. The “fold decrease in DOR binding vs AN81” value in the assay on DOR [2] is 17 fold. The “%MPE” value in the assay with male C57Bl6 mice [3] (2 mg/kg, 120 min, first day of treatment, ± SEM) was determined as 85.12 ± 5.43%; in the assay with male C57Bl6 mice [3] (setting [19]), 80.47 ± 5.29%; in the assay on male C57Bl6 mice [4] (day 1, i.v., 2 mg/kg, 3 h, ± SEM), 71.13 ± 4.71%; in the assay with male C57Bl6 mice [4] (day 5, i.v., 4 mg/kg daily, 30 min, ± SEM (AN81 7-10 animals, p < 0.001; SBCHM01 8-10 mice)), 12.25 ± 7.33%. The “antinociceptive activity relative to morphine” value in the assay on male C57Bl6 mice [3] (4 mg/kg, whole period of measurements, morphine i.p. same dose) is reported as “slightly weaker during the whole period of measurements”. In addition, the “synergistic or potentiating effect of combined pharmacophores” value with male C57Bl6 mice [3] (opioid and NK1 pharmacophores in a single entity) was “neither an synergistic nor potentiating antinociceptive effect appears”. In the assay on male C57Bl6 mice [4], the “tolerance development after repetitive administration” value is “could not circumvent opioid induced tolerance; also recorded: mice had developed opioid-induced tolerance; also recorded: lower dose of SBCHM01 does not reduce the extent of tolerance development; also recorded: complete loss in antinociception on the fifth day of the experiment; also recorded: lost its antinociceptive potency completely upon chronic injection”. Further, the “potency at 180 min” value with male C57Bl6 mice [4] (day 1, SBCHM01 2 mg/kg i.v., morphine 4 mg/kg i.p.) is “decrease in potency is clearly visible”. Further, in the assay on male C57Bl6 mice [4] (day 5, i.v., 2 mg/kg daily, up to 3 h), the “antinociceptive activity on the fifth day” value was “Complete abolishment of SBCHM01's antinociceptive activity on the fifth day”. In the assay on NK1R, the “NK1R pA2” value is reported as 7.8. Moreover, the inhibition constant Ki at hNK1R was 0.0005 ± 0.0001 µM; on KOR ([^3H]U69,593, guinea pig brain membrane) it was 0.445 ± 0.081 µM; at MOR [7], 0.000416 ± 1.2e-05 µM; at DOR [8] it was 0.0104 ± 0.0006 µM. Also, the values for the EC50 in the assay on MOR [5] and with DOR [6] were 0.00851 ± 0.00062 µM and 0.0433 ± 0.0063 µM, respectively.
As to H-Dmt-D-Arg-Phe-Lys-NH2 [Dmt^1-DALDA], in [9], the opioid analgesic potency result is given as “potent opioid analgesic”.
H-Dmt-NMe-D-Ala-Aba-Gly-NH2 [BVD03]: the “factor of superior MOR potency vs BVD02” value in the assay with MOR [10] was 45. Further, the “factor of superior MOR binding vs BVD02” value in the assay on MOR [11] stood at 4. Also, the “fold increase in DOR affinity vs BVD02” value in the assay with DOR [12] was 26 fold. Further, the “%MPE” value with male C57Bl6 mice [3] (0.25 mg/kg (similar at 4 and 0.5 mg/kg), 15 min) is listed as 35-40%; in the assay with male C57Bl6 mice [3] (0.25 mg/kg, 2 h, maximum level, ± SEM of 6-10 mice), 57.48 ± 17.57%; in the assay on male C57Bl6 mice [3] (0.5 mg/kg, 60 min, ± SEM of 6-10 mice, p > 0.05 vs morphine) it was 88.41 ± 7.15%; in the assay on male C57Bl6 mice [3] (0.5 mg/kg, 120 min, ± SEM of 6-10 mice, p > 0.05 vs morphine), 84.29 ± 6.46%; in the assay on male C57Bl6 mice [3] (1 mg/kg, 60 min, ± SEM of 6-10 mice, p > 0.05 vs morphine), 89.21 ± 5.22%; in the assay on male C57Bl6 mice [3] (1 mg/kg, 120 min, ± SEM of 6-10 mice, p > 0.05 vs morphine) it was 86.69 ± 5.52%. The “%MPE” value in the assay with male C57Bl6 mice [3] (4 mg/kg, 60 min, ± SEM of 6-10 mice, p > 0.05 vs morphine) turned out to be 68.78 ± 7.18%; in the assay on male C57Bl6 mice [3] (setting [19]) it was 50.06 ± 6.84%; in the assay with male C57Bl6 mice [4] (day 1, i.v., 4 mg/kg, 1 h, ± SEM of 7-10 animals), 68.78 ± 7.18%; in the assay with male C57Bl6 mice [4] (day 5, i.v., 4 mg/kg daily, 60 min, ± SEM of 7-10 animals), 18.14 ± 6.84%. Moreover, the “antinociception after 2 hours” value in the assay with male C57Bl6 mice [3] (all doses except 0.25 mg/kg) was “drop in antinociception after 2 hours”. Moreover, the “tolerance development after repetitive administration” value with male C57Bl6 mice [4] was “leads to the development of tolerance”. Also, in the assay with male C57Bl6 mice [4] (day 1, i.v., 4 mg/kg, 7-10 animals), the “difference from morphine on first day” value is given as “significant differences (**p < 0.01) when compared to morphine”. For the same substance, the 50% effective concentration (EC50) with MOR [13] was 1.74 ± 0.34 pM; in the assay with DOR [14], 0.016 ± 0.009 nM. Also, the Ki on MOR [15] was 0.015 ± 0.002 µM; on DOR [16], 0.005 ± 0.003 µM; at KOR ([^3H]diprenorphine, HEK293 cells stably expressing KOR), above 1000 µM.
Consider “H-Tyr-D-Ala-Gly-Phe-Met-Pro-Leu-Trp-O-3',5'-Bn(CF3)2 [TY005, hybrid opioid-NK1 octapeptide ligand]”, for which the antihyperalgesic tolerance entry in [17] is recorded as “development of antihyperalgesic tolerance could be suppressed; also recorded: inhibition of antihyperalgesic tolerance; also recorded: able to attenuate tolerance development”.
Take “H-Tyr-D-Ala-Phe-Gly-Tyr-Pro-Ser-NH2 [dermorphin]”: in the assay on rodents, the “tolerance development compared to morphine” value is recorded as “induces less tolerance development when compared to morphine”. Also, the “affinity and selectivity for the MOR” value in the assay on MOR [18] is “high affinity and selectivity for the MOR”.
